In patent US9125913B2, “Bcl-2-selective apoptosis-inducing agents for the treatment of cancer and immune diseases” (AbbVie Inc., priority 2008, dated 2015):

What was measured:
[1] = tested on: FL5.12/Bcl-2 cells; test: FL5.12/Bcl-2 cell viability assay; type: cell-based, murine; details: ratio of canine platelet EC50 to FL5.12/Bcl-2 EC50
Source text: FL5.12 is an IL-3 dependent prolymphocytic murine cell line that undergoes apoptosis upon IL-3 withdrawal as a result of the upregulation of pro-apoptotic Bcl-2 proteins such as Bim and Puma. Stable overexpression of anti-apoptotic Bcl-2 protein (FL5.12/Bcl-2) protects against apoptosis induced by IL-3 withdrawal by sequestration of Bim and Puma. […] The ability of compounds to kill FL5.12/Bcl-2 cells upon IL-3 withdrawal is a direct measure of the compounds' ability to inhibit anti-apoptotic Bcl-2 protein function.
Wild type FL5.12/Bcl-2 overexpressing stable transfectants were cultured in RPMI-1640 supplemented with 2 mM L-glutamine, 10% FBS, 1 mM sodium pyruvate, 2 mM HEPES, 1% penicillin/streptomycin (Invitrogen), 57 μM β-ME, and 10% WEHI-3B conditioned medium (source of IL-3) and maintained at 37° C. containing 5% CO2. 1×10^6 cells/ml were washed 1×PBS and resuspended in medium not supplemented with 10% WEHI-3B for 48 hrs prior to cytotoxicity assays. Cells were then treated for an additional 24 hrs in the presence of various concentrations of the indicated compounds. Cell viability was assessed by CellTitre Glo assay (Promega Corp.) according to the manufacturer's recommendations.

[2] = tested on: GST-Bcl-2; test: TR-FRET binding assay, Bcl-2; details: TR-FRET Ki values
Method in brief: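 Compounds serially diluted in DMSO from 50 μM (2× starting concentration, 10% DMSO), mixed with GST-tagged protein, F-Bak peptide probe and Tb-labeled antibody, incubated 3 h at room temperature.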

Compound | Selectivity Ratio (Platelet EC50/FL5.12/Bcl-2 EC50) [1] | Binding selectivity ratio (Bcl-XL Ki/Bcl-2 Ki) [2]
CN1CCC(Nc2ccc(S(=O)(=O)NC(=O)c3ccc(N4CCN(CC5=C(c6ccc(Cl)cc6)CC(C)(C)CC5)CC4)cc3Oc3ccc4[nH]ccc4c3)cc2S(=O)(=O)C(F)(F)Cl)CC1 [Example 74, N-({3-{[chloro(difluoro)methyl]sulfonyl}-4-[(1-methylpiperidin-4-yl)amino]phenyl}sulfonyl)-4-(4-{[2-(4-chlorophenyl)-4,4-dimethylcyclohex-1-en-1-yl]methyl}piperazin-1-yl)-2-(1H-indol-5-yloxy)benzamide] | 1989 | 1262.5
CN1CCC(Nc2ccc(S(=O)(=O)NC(=O)c3ccc(N4CCN(CC5=C(c6ccc(Cl)cc6)CCCC5)CC4)cc3Oc3ccc4[nH]ccc4c3)cc2[N+](=O)[O-])CC1 [Example 75, 4-(4-{[2-(4-chlorophenyl)cyclohex-1-en-1-yl]methyl}piperazin-1-yl)-2-(1H-indol-5-yloxy)-N-({4-[(1-methylpiperidin-4-yl)amino]-3-nitrophenyl}sulfonyl)benzamide] | 821 | 852.2
CN1CCN(CCCNc2ccc(S(=O)(=O)NC(=O)c3ccc(N4CCN(Cc5ccccc5-c5ccc(Cl)cc5)CC4)cc3Oc3ccccc3)cc2[N+](=O)[O-])CC1 [Example 86, 4-{4-[(4′-chloro-1,1′-biphenyl-2-yl)methyl]piperazin-1-yl}-N-[(4-{[3-(4-methylpiperazin-1-yl)propyl]amino}-3-nitrophenyl)sulfonyl]-2-phenoxybenzamide] | 489 | 49.6
CN1CCC(CNc2ccc(S(=O)(=O)NC(=O)c3ccc(N4CCN(Cc5ccccc5-c5ccc(Cl)cc5)CC4)cc3Oc3ccccc3)cc2[N+](=O)[O-])CC1 [Example 88, 4-{4-[(4′-chloro-1,1′-biphenyl-2-yl)methyl]piperazin-1-yl}-N-[(4-{[(1-methylpiperidin-4-yl)methyl]amino}-3-nitrophenyl)sulfonyl]-2-phenoxybenzamide] | 613 | 67.3
CN1CCC(Nc2ccc(S(=O)(=O)NC(=O)c3ccc(N4CCN(Cc5ccccc5-c5ccc(Cl)cc5)CC4)cc3Oc3ccccc3)cc2[N+](=O)[O-])CC1 [Example 89, 4-{4-[(4′-chloro-1,1′-biphenyl-2-yl)methyl]piperazin-1-yl}-N-({4-[(1-methylpiperidin-4-yl)amino]-3-nitrophenyl}sulfonyl)-2-phenoxybenzamide] | 495 | 57.8
CN(C)CCCOc1ccc(S(=O)(=O)NC(=O)c2ccc(N3CCN(Cc4ccccc4-c4ccc(Cl)cc4)CC3)cc2Oc2ccccc2)cc1[N+](=O)[O-] [Example 94, 4-{4-[(4′-chloro-1,1′-biphenyl-2-yl)methyl]piperazin-1-yl}-N-({4-[3-(dimethylamino)propoxy]-3-nitrophenyl}sulfonyl)-2-phenoxybenzamide] | 590 | 33.1
CN1CCN(CCCNc2ccc(S(=O)(=O)NC(=O)c3ccc(N4CCN(CC5=C(c6ccc(Cl)cc6)CC(C)(C)CC5)CC4)cc3Oc3ccc4[nH]ccc4c3)cc2[N+](=O)[O-])CC1 [Example 96, 4-(4-{[2-(4-chlorophenyl)-4,4-dimethylcyclohex-1-en-1-yl]methyl}piperazin-1-yl)-2-(1H-indol-5-yloxy)-N-[(4-{[3-(4-methylpiperazin-1-yl)propyl]amino}-3-nitrophenyl)sulfonyl]benzamide] | 2043 | 186.8
CC1(C)CCC(CN2CCN(c3ccc(C(=O)NS(=O)(=O)c4ccc(NCCCN5CCCC5)c([N+](=O)[O-])c4)c(Oc4ccc5[nH]ccc5c4)c3)CC2)=C(c2ccc(Cl)cc2)C1 [Example 97, 4-(4-{[2-(4-chlorophenyl)-4,4-dimethylcyclohex-1-en-1-yl]methyl}piperazin-1-yl)-2-(1H-indol-5-yloxy)-N-({3-nitro-4-[(3-pyrrolidin-1-ylpropyl)amino]phenyl}sulfonyl)benzamide] | 1052 | 96.7
CN1CCC(Nc2ccc(S(=O)(=O)NC(=O)c3ccc(N4CCN(CC5=C(c6ccc(Cl)cc6)CC(C)(C)CC5)CC4)cc3Oc3ccc4[nH]ccc4c3)cc2[N+](=O)[O-])CC1 [Example 98, 4-(4-{[2-(4-chlorophenyl)-4,4-dimethylcyclohex-1-en-1-yl]methyl}piperazin-1-yl)-2-(1H-indol-5-yloxy)-N-({4-[(1-methylpiperidin-4-yl)amino]-3-nitrophenyl}sulfonyl)benzamide] | 4849 | >50769.2
CN1CCN(CCCNc2ccc(S(=O)(=O)NC(=O)c3ccc(N4CCN(CC5=C(c6ccc(Cl)cc6)CC(C)(C)CC5)CC4)cc3Oc3cccc4[nH]ccc34)cc2[N+](=O)[O-])CC1 [Example 99, 4-(4-{[2-(4-chlorophenyl)-4,4-dimethylcyclohex-1-en-1-yl]methyl}piperazin-1-yl)-2-(1H-indol-4-yloxy)-N-[(4-{[3-(4-methylpiperazin-1-yl)propyl]amino}-3-nitrophenyl)sulfonyl]benzamide] | 2440 | 138.3
CN(C)CCCOc1ccc(S(=O)(=O)NC(=O)c2ccc(N3CCN(CC4=C(c5ccc(Cl)cc5)CC(C)(C)CC4)CC3)cc2Oc2ccc3[nH]ccc3c2)cc1[N+](=O)[O-] [Example 100, 4-(4-{[2-(4-chlorophenyl)-4,4-dimethylcyclohex-1-en-1-yl]methyl}piperazin-1-yl)-N-({4-[3-(dimethylamino)propoxy]-3-nitrophenyl}sulfonyl)-2-(1H-indol-5-yloxy)benzamide] | 2029 | 71.4
CC1(C)CCC(CN2CCN(c3ccc(C(=O)NS(=O)(=O)c4ccc(NCCCN5CCCC5)c([N+](=O)[O-])c4)c(Oc4cccc5[nH]ccc45)c3)CC2)=C(c2ccc(Cl)cc2)C1 [Example 102, 4-(4-{[2-(4-chlorophenyl)-4,4-dimethylcyclohex-1-en-1-yl]methyl}piperazin-1-yl)-2-(1H-indol-4-yloxy)-N-({3-nitro-4-[(3-pyrrolidin-1-ylpropyl)amino]phenyl}sulfonyl)benzamide] | 996 | 64.1
CN1CCC(Nc2ccc(S(=O)(=O)NC(=O)c3ccc(N4CCN(CC5=C(c6ccc(Cl)cc6)CC(C)(C)CC5)CC4)cc3Oc3cccc4[nH]ccc34)cc2[N+](=O)[O-])CC1 [Example 103, 4-(4-{[2-(4-chlorophenyl)-4,4-dimethylcyclohex-1-en-1-yl]methyl}piperazin-1-yl)-2-(1H-indol-4-yloxy)-N-({4-[(1-methylpiperidin-4-yl)amino]-3-nitrophenyl}sulfonyl)benzamide] | 2305 | 2096.1
